Measurements taken from ChEMBL document CHEMBL1127199, “Design of C-terminal peptide antagonists of endothelin: structure-activity relationships of ET-[1621, D-His16]” (Bioorg Med Chem Lett, 1993).
Where a SMILES comes first, the peptide text is derived from it. [ ]: non-standard residue; d: D form.

Assays:
[1] = target: T1, Endothelin receptor type B (Rattus norvegicus, UniProt P21451); assay: Displacement of [125I]ET1 from Endothelin B receptor of rat cerebellum; type: tissue-based
T1 sequence (P21451 whole entry): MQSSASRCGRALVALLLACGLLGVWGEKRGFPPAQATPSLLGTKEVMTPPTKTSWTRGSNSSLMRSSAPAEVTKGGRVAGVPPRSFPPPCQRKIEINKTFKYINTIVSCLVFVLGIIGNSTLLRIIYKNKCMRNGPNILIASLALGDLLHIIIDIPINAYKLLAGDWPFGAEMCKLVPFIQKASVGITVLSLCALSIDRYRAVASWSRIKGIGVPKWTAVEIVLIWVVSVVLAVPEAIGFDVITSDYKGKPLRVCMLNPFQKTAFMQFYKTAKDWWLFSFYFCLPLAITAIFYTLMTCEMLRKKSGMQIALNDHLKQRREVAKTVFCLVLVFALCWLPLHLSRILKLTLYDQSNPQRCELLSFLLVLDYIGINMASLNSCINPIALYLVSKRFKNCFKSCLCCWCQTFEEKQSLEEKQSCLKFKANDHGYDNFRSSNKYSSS

[2] = target: Endothelin A receptor (Oryctolagus cuniculus); assay: Displacement of [125I]-ET-1 from Endothelin A receptor of rabbit renal artery vascular smooth muscle cells
Oryctolagus cuniculus = species on record: Oryctolagus cuniculus; assay: Compound was tested for its inhibition of ET-1 induced arachidonic acid accumulation in rabbit renal artery vascular smooth muscle cells; type: functional

Row | IC50 [1] | IC50 [2] | IC50 (Oryctolagus cuniculus) | SMILES
1 |  | 9100 nM |  | CC[C@H](C)[C@H](NC(=O)[C@H](CC(=O)O)NC(=O)[C@@H](Cc1ccccc1)NC(C)=O)C(=O)N[C@H](C(=O)N[C@@H](Cc1c[nH]c2ccccc12)C(=O)O)[C@@H](C)CC (Ac-[dF]DIIW-OH)
2 |  |  | 600 nM | CC[C@H](C)[C@H](NC(=O)[C@H](CC(=O)O)NC(=O)[C@H](CCC(=O)O)NC(=O)[C@@H](Cc1ccccc1)NC(C)=O)C(=O)N[C@H](C(=O)N[C@@H](Cc1c[nH]c2ccccc12)C(=O)O)[C@@H](C)CC (Ac-[dF]EDIIW-OH)
3 | 50 nM |  |  | CC[C@H](C)[C@H](NC(=O)[C@H](CC(=O)O)NC(=O)[C@H](Cc1ccccc1)NC(=O)[C@@H](Cc1ccccc1)NC(C)=O)C(=O)N[C@H](C(=O)N[C@@H](Cc1c[nH]c2ccccc12)C(=O)O)[C@@H](C)CC (Ac-[dF]FDIIW-OH)
4 | 140 nM |  |  | CC[C@H](C)[C@H](NC(=O)[C@H](CC(=O)O)NC(=O)[C@H](CC(C)C)NC(=O)[C@@H](Cc1ccccc1)NC(C)=O)C(=O)N[C@H](C(=O)N[C@@H](Cc1c[nH]c2ccccc12)C(=O)O)[C@@H](C)CC (Ac-[dF]LDIIW-OH)
5 | 30 nM |  | 1600 nM | CC[C@H](C)[C@H](NC(=O)[C@H](CC(=O)O)NC(=O)[C@@H](Cc1ccccc1)NC(=O)[C@@H](Cc1ccccc1)NC(C)=O)C(=O)N[C@H](C(=O)N[C@@H](Cc1c[nH]c2ccccc12)C(=O)O)[C@@H](C)CC (Ac-[dF][dF]DIIW-OH)

Row | SMILES | IC50 [1] | IC50 [2] | IC50 (Oryctolagus cuniculus)
6 | CC[C@H](C)[C@H](NC(=O)[C@H](CC(=O)O)NC(=O)[C@H](CC(C)C)NC(=O)[C@H](Cc1c[nH]cn1)NC(C)=O)C(=O)N[C@H](C(=O)N[C@@H](Cc1c[nH]c2ccccc12)C(=O)O)[C@@H](C)CC (Ac-HLDIIW-OH) | > 50000 nM |  | 
